Source: ChEMBL document CHEMBL6127085, “Design, synthesis and evaluation of novel LpxC inhibitors containing a hydrazone moiety as Gram-negative antibacterial agents” (Eur J Med Chem, 2024)
Values after ≈ are worked out from the molar mass of the structure shown.

Experiments:
Pseudomonas aeruginosa [1] = experiment: Antibacterial activity against Pseudomonas aeruginosa clinical isolate PAE22-1 assessed as reduction in bacterial growth measured after 18 to 24 hrs by CLSI protocol based method; assay type: functional; conditions: time 18-24 hrs
Pseudomonas aeruginosa [2] = experiment: Antibacterial activity against Pseudomonas aeruginosa ATCC27853 assessed as reduction in bacterial growth measured after 18 to 24 hrs by CLSI protocol based method; assay type: functional; conditions: time 18-24 hrs
Escherichia coli = experiment: Antibacterial activity against Escherichia coli ATCC25922 assessed as reduction in bacterial growth measured after 18 to 24 hrs by CLSI protocol based method; assay type: functional; conditions: time 18-24 hrs
Klebsiella pneumoniae [3] = experiment: Antibacterial activity against Klebsiella pneumoniae clinical isolate KPN+22-1 assessed as reduction in bacterial growth measured after 18 to 24 hrs by CLSI protocol based method; assay type: functional; conditions: time 18-24 hrs
Klebsiella pneumoniae [4] = experiment: Antibacterial activity against Klebsiella pneumoniae ATCC700603 assessed as reduction in bacterial growth measured after 18 to 24 hrs by CLSI protocol based method; assay type: functional; conditions: time 18-24 hrs
[5] = Metabolic stability in human liver microsomes assessed as half life at 1 uM preincubated for 5 mins followed by NADPH addition and measured after 5 to 60 mins by LC-MS analysis; assay type: ADME, Microsome; conditions: liver microsomes, time 10-65 min
[6] = Metabolic stability in mouse liver microsomes assessed as half life at 1 uM preincubated for 5 mins followed by NADPH addition and measured after 5 to 60 mins by LC-MS analysis; assay type: ADME, Microsome; conditions: liver microsomes, time 10-65 min
[7] = Metabolic stability in human liver microsomes assessed as intrinsic clearance at 1 uM preincubated for 5 mins followed by NADPH addition and measured after 5 to 60 mins by LC-MS analysis; assay type: ADME, Microsome; conditions: time 10-65 min, read-out: CLH
[8] = Intrinsic clearance in rat; assay type: ADME; conditions: read-out: CLH
[9] = Metabolic stability in rat liver microsomes assessed as intrinsic clearance at 1 uM preincubated for 5 mins followed by NADPH addition and measured after 5 to 60 mins by LC-MS analysis; assay type: ADME, Microsome; conditions: liver microsomes, time 10-65 min, read-out: CLH
[10] = Metabolic stability in rat liver microsomes assessed as half life at 1 uM preincubated for 5 mins followed by NADPH addition and measured after 5 to 60 mins by LC-MS analysis; assay type: ADME, Microsome; conditions: liver microsomes, time 10-65 min
[11] = Intrinsic clearance in mouse; assay type: ADME, organism-based; conditions: read-out: CLH
[12] = Intrinsic clearance in human; assay type: ADME; conditions: read-out: CLH
[13] = Metabolic stability in mouse liver microsomes assessed as intrinsic clearance at 1 uM preincubated for 5 mins followed by NADPH addition and measured after 5 to 60 mins by LC-MS analysis; assay type: ADME, Microsome; conditions: liver microsomes, time 10-65 min, read-out: CLH

SMILES	MIC (Pseudomonas aeruginosa [1]) [µg/mL]	MIC (Pseudomonas aeruginosa [2]) [µg/mL]	MIC (Escherichia coli) [µg/mL]	MIC (Klebsiella pneumoniae [3]) [µg/mL]	MIC (Klebsiella pneumoniae [4]) [µg/mL]	half-life at 1 µM [5] [h]	half-life at 1 µM [6] [h]	microsomal CLint at 1 µM [7] [µL/min/mg]	CLint scaled [8] [mL/min/kg]	microsomal CLint at 1 µM [9] [µL/min/mg]	half-life at 1 µM [10] [h]	CLint scaled [11] [mL/min/kg]	CLint scaled [12] [mL/min/kg]	microsomal CLint at 1 µM [13] [µL/min/mg]
O=C(NO)C1CN(c2ccc(C#Cc3ccc(/C=N/N4CCCC4)cc3)cc2)C(=O)O1 (centres undefined)	> 64	–	> 64	> 64	–	–	–	–	–	–	–	–	–	–
CCC(=O)N1CCN(/N=C/c2ccc(C#Cc3ccc(C(=O)N[C@H](C(=O)NO)[C@@H](C)O)cc3)cn2)CC1	16 (≈ 31.6 µM)	16 (≈ 31.6 µM)	8 (≈ 15.8 µM)	32 (≈ 63.2 µM)	> 64	–	–	–	–	–	–	–	–	–
CCN1CCN(/N=C/c2ccc(C#Cc3ccc(C(=O)N[C@H](C(=O)NO)[C@@H](C)O)cc3)cn2)CC1	8 (≈ 16.7 µM)	4 (≈ 8.36 µM)	16 (≈ 33.4 µM)	64 (≈ 134 µM)	> 64	–	–	–	–	–	–	–	–	–
C[C@@H](O)[C@H](NC(=O)c1ccc(C#Cc2ccc(/C=N/N3CCNCC3)cc2)cc1)C(=O)NO	> 64	> 64	4 (≈ 8.9 µM)	> 64	> 64	–	–	–	–	–	–	–	–	–
C[C@@H](O)[C@H](NC(=O)c1ccc(C#Cc2ccc(/C=N/N3CCN(C4CCCC4)CC3)cc2)cc1)C(=O)NO	32 (≈ 61.8 µM)	> 64	2 (≈ 3.86 µM)	32 (≈ 61.8 µM)	> 64	–	–	–	–	–	–	–	–	–
C[C@@H](O)[C@H](NC(=O)c1ccc(C#Cc2ccc(/C=N/N3CCN(C)CC3)nc2)cc1)C(=O)NO	8 (≈ 17.2 µM)	8 (≈ 17.2 µM)	8 (≈ 17.2 µM)	32 (≈ 68.9 µM)	–	–	–	–	–	–	–	–	–	–
O=C(NO)C1CN(c2ccc(C#Cc3ccc(/C=N/N4CCOCC4)cc3)cc2)C(=O)O1 (centres undefined)	> 64	–	1 (≈ 2.3 µM)	8 (≈ 18.4 µM)	–	–	–	–	–	–	–	–	–	–
CCOC(=O)N1CCN(/N=C/c2ccc(C#Cc3ccc(C(=O)N[C@H](C(=O)NO)[C@@H](C)O)cc3)cn2)CC1	8 (≈ 15.3 µM)	16 (≈ 30.6 µM)	2 (≈ 3.83 µM)	32 (≈ 61.2 µM)	> 64	–	–	–	–	–	–	–	–	–
C[C@@H](O)[C@H](NC(=O)c1ccc(C#Cc2ccc(/C=N/N3CCN(C(=O)OC(C)(C)C)CC3)cc2)cc1)C(=O)NO	16 (≈ 29.1 µM)	> 64	1 (≈ 1.82 µM)	8 (≈ 14.6 µM)	> 64	–	–	–	–	–	–	–	–	–
C[C@@H](O)[C@H](NC(=O)c1ccc(C#Cc2ccc(/C=N/N3CCN(C(=O)C(C)(C)C)CC3)nc2)cc1)C(=O)NO	16 (≈ 29.9 µM)	16 (≈ 29.9 µM)	4 (≈ 7.48 µM)	16 (≈ 29.9 µM)	> 64	–	–	–	–	–	–	–	–	–
C#CCN1CCN(/N=C/c2ccc(C#Cc3ccc(C(=O)N[C@H](C(=O)NO)[C@@H](C)O)cc3)cc2)CC1	8 (≈ 16.4 µM)	2 (≈ 4.1 µM)	0.03 (≈ 0.0615 µM)	2 (≈ 4.1 µM)	32 (≈ 65.6 µM)	–	–	–	–	–	–	–	–	–
C[C@@H](O)[C@H](NC(=O)c1ccc(C#Cc2ccc(/C=N/N3CCN(C(=O)C(C)(C)C)CC3)cc2)cc1)C(=O)NO	> 32	> 32	0.25 (≈ 0.468 µM)	8 (≈ 15 µM)	> 32	1.37	2.53	19.4	28.1	15.6	1.48	36.6	18.4	9.29
CCOC(=O)N1CCN(/N=C/c2ccc(C#Cc3ccc(C(=O)N[C@H](C(=O)NO)[C@@H](C)O)cc3)cc2)CC1	8 (≈ 15.3 µM)	8 (≈ 15.3 µM)	0.06 (≈ 0.115 µM)	4 (≈ 7.67 µM)	16 (≈ 30.7 µM)	–	–	–	–	–	–	–	–	–
C[C@@H](O)[C@H](NC(=O)c1ccc(C#Cc2ccc(/C=N/N3CCN(S(C)(=O)=O)CC3)cc2)cc1)C(=O)NO	> 64	> 64	0.5 (≈ 0.948 µM)	> 64	> 64	–	–	–	–	–	–	–	–	–

Stronger by MIC (Pseudomonas aeruginosa [1]), values ahead:

MIC (Pseudomonas aeruginosa [1]) [µg/mL]	MIC (Pseudomonas aeruginosa [2]) [µg/mL]	MIC (Escherichia coli) [µg/mL]	MIC (Klebsiella pneumoniae [3]) [µg/mL]	MIC (Klebsiella pneumoniae [4]) [µg/mL]	half-life at 1 µM [5] [h]	half-life at 1 µM [6] [h]	microsomal CLint at 1 µM [7] [µL/min/mg]	CLint scaled [8] [mL/min/kg]	microsomal CLint at 1 µM [9] [µL/min/mg]	half-life at 1 µM [10] [h]	CLint scaled [11] [mL/min/kg]	CLint scaled [12] [mL/min/kg]	microsomal CLint at 1 µM [13] [µL/min/mg]	SMILES
4 (≈ 9.19 µM)	> 64	2 (≈ 4.59 µM)	> 64	–	–	–	–	–	–	–	–	–	–	C[C@@H](O)[C@H](NC(=O)c1ccc(C#Cc2ccc(/C=N/N3CCCC3)nc2)cc1)C(=O)NO
2 (≈ 4.43 µM)	16 (≈ 35.4 µM)	4 (≈ 8.86 µM)	16 (≈ 35.4 µM)	–	–	–	–	–	–	–	–	–	–	C[C@@H](O)[C@H](NC(=O)c1ccc(C#Cc2ccc(/C=N/N3CCOCC3)nc2)cc1)C(=O)NO
2 (≈ 4.07 µM)	> 64	0.5 (≈ 1.02 µM)	2 (≈ 4.07 µM)	> 64	–	–	–	–	–	–	–	–	–	CC(=O)N1CCN(/N=C/c2ccc(C#Cc3ccc(C(=O)N[C@H](C(=O)NO)[C@@H](C)O)cc3)cc2)CC1
2 (≈ 4.19 µM)	4 (≈ 8.38 µM)	0.5 (≈ 1.05 µM)	4 (≈ 8.38 µM)	16 (≈ 33.5 µM)	–	–	–	–	–	–	–	–	–	CCN1CCN(/N=C/c2ccc(C#Cc3ccc(C(=O)N[C@H](C(=O)NO)[C@@H](C)O)cc3)cc2)CC1
4 (≈ 8.92 µM)	32 (≈ 71.3 µM)	0.25 (≈ 0.557 µM)	1 (≈ 2.23 µM)	32 (≈ 71.3 µM)	–	–	–	–	–	–	–	–	–	C[C@@H](O)[C@H](NC(=O)c1ccc(C#Cc2ccc(/C=N/N3CCCCC3)cc2)cc1)C(=O)NO
4 (≈ 7.68 µM)	8 (≈ 15.4 µM)	0.5 (≈ 0.96 µM)	2 (≈ 3.84 µM)	16 (≈ 30.7 µM)	–	–	–	–	–	–	–	–	–	C[C@@H](O)[C@H](NC(=O)c1ccc(C#Cc2ccc(/C=N/N3CCN(C(=O)N(C)C)CC3)cc2)cc1)C(=O)NO
2 (≈ 4.45 µM)	16 (≈ 35.6 µM)	1 (≈ 2.22 µM)	8 (≈ 17.8 µM)	–	–	–	–	–	–	–	–	–	–	C[C@@H](O)[C@H](NC(=O)c1ccc(C#Cc2ccc(/C=N/N3CCCCC3)nc2)cc1)C(=O)NO
4 (≈ 8.02 µM)	4 (≈ 8.02 µM)	1 (≈ 2.01 µM)	4 (≈ 8.02 µM)	16 (≈ 32.1 µM)	–	–	–	–	–	–	–	–	–	C[C@@H](O)[C@H](NC(=O)c1ccc(C#Cc2ccc(/C=N/N3CCS(=O)(=O)CC3)cc2)cc1)C(=O)NO
4 (≈ 7.73 µM)	2 (≈ 3.86 µM)	0.03 (≈ 0.058 µM)	2 (≈ 3.86 µM)	16 (≈ 30.9 µM)	4.9	2.08	4.73	9.09	5.05	4.58	48	4.47	12.2	C[C@@H](O)[C@H](NC(=O)c1ccc(C#Cc2ccc(/C=N/N3CCN(C(=O)C4CC4)CC3)cc2)cc1)C(=O)NO
4 (≈ 7.91 µM)	4 (≈ 7.91 µM)	0.03 (≈ 0.0593 µM)	2 (≈ 3.96 µM)	16 (≈ 31.6 µM)	5.15	3.37	4.51	12.1	6.7	3.5	28.5	4.26	7.23	CCC(=O)N1CCN(/N=C/c2ccc(C#Cc3ccc(C(=O)N[C@H](C(=O)NO)[C@@H](C)O)cc3)cc2)CC1
2 (≈ 4.31 µM)	2 (≈ 4.31 µM)	1 (≈ 2.16 µM)	2 (≈ 4.31 µM)	8 (≈ 17.3 µM)	–	–	–	–	–	–	–	–	–	C[C@@H](O)[C@H](NC(=O)c1ccc(C#Cc2ccc(/C=N/N3CCN(C)CC3)cc2)cc1)C(=O)NO
